In patent US12630545B2, “Crystal of compound X7 hydrochloride and its preparation method and application” (ORxes Therapeutics Co., Ltd., priority 2020, dated 2026):
Entries after “also recorded” stand apart in the source; their conditions may differ. Counter-ions that a name gives are not always drawn.

Tests used:
[1] = Equilibrium solubility in water; assay type: physicochemical; conditions: for Crystal form transformation: XRPD of solid after 24 hours equilibrium in water; for pH: supernatant after 24 hours equilibrium in water
Protocol: As a comparison, the equilibrium solubility was also tested under the same conditions for crystal form C sample (prepared in Example 11), crystal form D sample (prepared in Example 12), and crystal form F sample (prepared in Example 13). The suspension of each crystal form (˜10 mg/mL) was prepared in the test, magnetically stirred at room temperature for 24 hours (rotating speed˜800 rpm) and then centrifuged (10000 rpm, 5 min). The solubility and pH were determined for the supernatant after filtration ([…] PTFE filter membrane) and XRPD (transmission) for the solid.

[2] = Hygroscopicity by dynamic vapor sorption (DVS); assay type: physicochemical
Protocol: Dynamic vapor sorption (DVS) curves were created using DVS Intrinsic of SMS (Surface Measurement Systems). The relative humidity at 25° C. was corrected by the deliquescence points of LiCl, Mg (NO3)2, and KCl.

[3] = Solid-state stability (HPLC purity, XRPD crystal form); assay type: physicochemical
Protocol: For the solid samples separated under different conditions, the chemical stability was evaluated by determining purity using the HPLC method, and the physical stability was evaluated by determining the crystal form using the XRPD test.

[4] = tested on: isolated rabbit vascular smooth muscle contraction induced by spasmodic agent AD; test: Relaxation of isolated rabbit vascular smooth muscle contraction induced by spasmodic agent AD; assay type: cell-based; conditions: Oryctolagus cuniculus; adrenaline hydrochloride 10^−5 mol/L; X7 1×10^−9˜1×10^−6 mol/L; read-out: −logEC50 to relax the rabbit aorta contraction by AD (converted)
Protocol: After anesthetizing the rabbit, its chest was quickly cut open. The descending aorta, connective tissues, and surrounding adipose tissues were removed (if the serotonin receptor antagonistic test was carried out, a smooth stainless steel rod was used to remove the endothelial cells), and the aorta was cut into 3-5 mm vascular rings. Then, the steel wire hook was passed through the vascular ring, with one end fixed on the ventilation hook and the other end connected to the tension transducer and placed in a bath tube containing 20 ml of nutrient solution. The change in tension was recorded. The temperature was maintained in the bath tube at 37±0.5° C., and a mixed gas (95% O2+5% CO2) was introduced at the rate of 1-2 bubbles per second. […]
After the specimen tension became stable, a waveform was recorded, the spasmodic agent adrenaline hydrochloride (AD) (10^−5 mol/L) was added in the bath tube to induce contraction. […] When the maximum response of the next contraction was basically the same as that of the previous one, the prepared X7 solution (1×10^−9˜1×10^−6 mol/L) was added, and the waveform recorded. With the maximum relaxation response of X7 as 100%, the relaxation percentage of X7 at each concentration was calculated and the dose-effect curve plotted using the relaxation percentage of X7 as the vertical coordinate and the logarithm of each concentration as the horizontal coordinate. […]

[5] = tested on: 5-hydroxytryptamine (5-HT) receptor in rabbit vascular smooth muscle; test: Antagonism of 5-HT cumulative contraction of rabbit aorta; assay type: cell-based
Protocol: (§1) After anesthetizing the rabbit, its chest was quickly cut open. The descending aorta, connective tissues, and surrounding adipose tissues were removed (if the serotonin receptor antagonistic test was carried out, a smooth stainless steel rod was used to remove the endothelial cells), and the aorta was cut into 3-5 mm vascular rings. Then, the steel wire hook was passed through the vascular ring, with one end fixed on the ventilation hook and the other end connected to the tension transducer and placed in a bath tube containing 20 ml of nutrient solution. The change in tension was recorded. The temperature was maintained in the bath tube at 37±0.5° C., and a mixed gas (95% O2+5% CO2) was introduced at the rate of 1-2 bubbles per second. The initial load of the specimen was 1.5 g. The nutrient solution was changed every 20 min, balanced for 2 h, and the test was started after the baseline became stable.
After the specimen tension became stable, the waveform was recorded and 5-HT added cumulatively in the bath tube (10^−7˜3×10^−4 mol/L) until reaching the maximum response, and the waveform was recorded again. […]
After the specimen tension became stable, a waveform was recorded and 5-HT cumulatively added in the bath tube (10^−7˜3×10^−4 mol/L) until reaching the maximum response, and the waveform was recorded again. […]

[6] = tested on: α receptor in rabbit vascular smooth muscle; test: Antagonism of norepinephrine cumulative contraction of rabbit aorta; assay type: cell-based
Protocol: as §1
After the specimen tension became stable, a waveform was recorded and norepinephrine added cumulatively in the bath tube (10^−8˜6×10^−5 mol/L) until reaching the maximum response, and then, the waveform was recorded again. […]
After the specimen tension became stable, a waveform was recorded and norepinephrine added cumulatively in the bath tube (10^−8˜3×10^−3 mol/L) until reaching the maximum response, and then, the waveform was recorded. […]

[7] = room temperature, hydrochloride
[8] = 3 conditions: sealed 80° C. 1 day, open 25° C./60% RH and 40° C./75% RH 1 week, hydrochloride
[9] = equilibrium solubility in water, room temperature, 24 hours, hydrochloride

Compound: c1ccc2c(c1)nnn2CCCCN1CCN(c2nsc3ccccc23)CC1 [Crystal form A, 3-(4-(4-(1H-benzotriazol-1-yl)butyl)piperazin-1-yl) benzoisothiazole hydrochloride]
- Crystal form transformation ([1]; hydrochloride): No
- Crystal form transformation ([1]; listed as crystal form A, hydrochloride): remained unchanged
- pH [1, 7]: 4.6
- solubility at 24 h ([1]; water, thermodynamic from solid, equilibrium solubility in water, room temperature, 24 hours): 3800 µg/mL
- crystal form transformation after the DVS test ([2]; 25° C.): no crystal form transformation
- water absorbed (DVS) ([2]; 25° C./80% RH): 0.08%
- hygroscopicity ([2]; DVS, 25° C./80% RH, China Pharmacopoeia 2015 guide): no hygroscopicity
- chemical purity change (chemical stability, HPLC) [3, 8]: does not undergo crystal form transformation and chemical purity reduction; also recorded: no crystal form transformation or reduction of HPLC purity
- crystal form transformation (physical stability, XRPD) [3, 8]: does not undergo crystal form transformation; also recorded: no crystal form transformation

Compound: c1ccc2c(c1)nnn2CCCCN1CCN(c2nsc3ccccc23)CC1 [Crystal form B, 3-(4-(4-(1H-benzotriazol-1-yl)butyl)piperazin-1-yl) benzoisothiazole hydrochloride]
- Crystal form transformation ([1]; hydrochloride): No
- Crystal form transformation ([1]; listed as crystal form B, hydrochloride): remained unchanged
- Solubility [1, 9]: 3400 µg/mL
- pH [1, 7]: 4.9
- water absorption (DVS) ([2]; adsorption process, 95% RH, 25° C.): 12.5%
- water absorbed (DVS) ([2]; desorption process, 30% RH, 25° C.): 0.4%
- water absorbed (DVS) ([2]; desorption process, 50% RH, 25° C.): 12.3%
- chemical purity change (chemical stability, HPLC) [3, 8]: does not decrease
- HPLC purity change ([3]; open container, 25° C./60% RH, 1 week): no change in crystal form or HPLC purity
- crystal form change (physical stability, XRPD) ([3]; open container, 25° C./60% RH, 1 week, hydrochloride): no change in crystal form
- crystal form change (physical stability, XRPD) ([3]; open container, 25° C./60% RH, 1 week, listed as crystal form B, hydrochloride): remains unchanged

Compound: c1ccc2c(c1)nnn2CCCCN1CCN(c2nsc3ccccc23)CC1 [Crystal form C, 3-(4-(4-(1H-benzotriazol-1-yl)butyl)piperazin-1-yl) benzoisothiazole hydrochloride]
- Crystal form transformation ([1]; hydrochloride): transformed into crystal form B
- Solubility [1, 9]: 3300 µg/mL
- pH [1, 7]: 4.9

Compound: c1ccc2c(c1)nnn2CCCCN1CCN(c2nsc3ccccc23)CC1 [Crystal form D, 3-(4-(4-(1H-benzotriazol-1-yl)butyl)piperazin-1-yl) benzoisothiazole hydrochloride]
- Crystal form transformation ([1]; listed as 0, hydrochloride): transformed into crystal form B
- Solubility [1, 9]: 3100 µg/mL
- pH [1, 7]: 4.9

Compound: c1ccc2c(c1)nnn2CCCCN1CCN(c2nsc3ccccc23)CC1 [Crystal form F, 3-(4-(4-(1H-benzotriazol-1-yl)butyl)piperazin-1-yl) benzoisothiazole hydrochloride]
- Crystal form transformation ([1]; hydrochloride): transformed into crystal form B
- Solubility [1, 9]: 2900 µg/mL
- pH [1, 7]: 4.7

Compound: c1ccc2c(c1)nnn2CCCCN1CCN(c2nsc3ccccc23)CC1 [X7, 3-(4-(4-(1H-benzotriazol-1-yl)butyl)piperazin-1-yl) benzoisothiazole hydrochloride]
- EC50 [4]: 8.51 nM
- PA2 to resist rabbit aorta contraction by 5HT ([5]; X7 10^−7 mol/L, endothelium removed): 8.86±0.14
- PA2 to resist rabbit aorta contraction by norepinephrine ([6]; X7 3×10^−8 mol/L): 7.98±0.04

Compound: COc1cc2nc(N3CCN(C(=O)C4COc5ccccc5O4)CC3)nc(N)c2cc1OC (stereo not shown) [doxazosin, reference compound]
- PA2 to resist rabbit aorta contraction by NA ([6]; doxazosin 10^−7 mol/L): 7.83±0.05

Compound: COc1cccc(CCc2ccccc2OCC(CN(C)C)OC(=O)CCC(=O)O)c1 (stereo not shown) [sarpogrelate, reference compound]
- PA2 to resist rabbit aorta contraction by 5-HT ([5]; sarpogrelate 10^−6 mol/L): 7.21±0.08
